Measured values as given in the supplement of paper PMC4862054.
Several values for one entry are separate records, joined by “and”; a condition that tells them apart may be missing. Equal entries are not always repeated.

Experiments:
Details in all cases: incubation time: 72 h
BT-474 [1] = experiment: normalised viability (% of control), CellTiter-Blue; higher = more viable cells (about 100 = DMSO control)
Description: (§1)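 DSRT, CellTiter-Blue viability, 72 h incubation. Signal is normalised to DMSO and benzethonium chloride controls. Value is the normalised response at dose 3.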

BT-549 [2] = experiment: as above
Description: as §1

CAL-120 = experiment: as above
Description: as §1

CAL-148 = experiment: as above
Description: as §1

CAL-51 [3] = experiment: as above
Description: as §1

CAL-85-1 [4] = experiment: as above
Description: as §1

DU-4475 [5] = experiment: as above
Description: as §1

HCC1143 [6] = experiment: as above
Description: as §1

HCC1599 [7] = experiment: as above
Description: as §1

HCC1937 = experiment: as above
Description: as §1

HDQ-P1 = experiment: as above
Description: as §1

Hs578T = experiment: as above
Description: as §1

MDA-MB-231 [8] = experiment: as above
Description: as §1

MDA-MB-436 [9] = experiment: as above
Description: as §1

MDA-MB-453 [10] = experiment: as above
Description: as §1

MDA-MB-468 [11] = experiment: as above
Description: as §1

MFM-223 = experiment: as above
Description: as §1

SK-BR-3 [12] = experiment: as above
Description: as §1

MDA-MB-453 [13] = experiment: normalised viability (% of control), CellTiter-Blue; higher = more viable cells (about 100 = DMSO control); remark: listed apart in the source
Summary of the method: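 Seeded at 20 µl suspension per well onto compound-loaded 384-well plates, breast cancer cell lines were incubated 72 h. CellTiter-Blue fluorescence at 560/590 nm was then read, with each plate normalised to vehicle (100) and a positive kill control (0). Normalised viability is reported at a single listed concentration of the series.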

BT-474 [14] = experiment: normalised viability (% of control), CellTiter-Blue; higher = more viable cells (100 = DMSO, 0 = benzethonium chloride kill control)
Description: (§2)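 DSRT, CellTiter-Blue viability, 72 h incubation. Signal is normalised to DMSO and benzethonium chloride controls. Value is the normalised response at dose 1.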

BT-549 [15] = experiment: as above
Description: as §2

CAL-51 [16] = experiment: as above
Description: as §2

CAL-85-1 [17] = experiment: as above
Description: as §2

DU-4475 [18] = experiment: as above
Description: as §2

HCC1143 [19] = experiment: as above
Description: as §2

HCC1599 [20] = experiment: as above
Description: as §2

MDA-MB-231 [21] = experiment: as above
Description: as §2

MDA-MB-436 [22] = experiment: as above
Description: as §2

MDA-MB-453 [23] = experiment: as above
Description: as §2

MDA-MB-468 [24] = experiment: as above
Description: as §2

SK-BR-3 [25] = experiment: as above
Description: as §2

COc1cc2c(Oc3ccc4[nH]c(C)cc4c3F)ncnc2cc1OCCCN1CCCC1 [Cediranib]
normalised viability (BT-474 [1]; 10 nM): 98.4% | normalised viability (BT-549 [2]; 10 nM): 78.1% | normalised viability (CAL-120; 10 nM): 112% | normalised viability (CAL-148; 1 nM): 97.3% | normalised viability (CAL-51 [3]; 1 nM): 87.2% | normalised viability (CAL-85-1 [4]; 1 nM): 105% | normalised viability (DU-4475 [5]; 1 nM): 97.6% | normalised viability (HCC1143 [6]; 10 nM): 125% | normalised viability (HCC1599 [7]; 10 nM): 95.1% | normalised viability (HCC1937; 10 nM): 96.6% | normalised viability (HDQ-P1; 1 nM): 92.7% | normalised viability (Hs578T; 10 nM): 78.1% | normalised viability (MDA-MB-231 [8]; 10 nM): 82.1% | normalised viability (MDA-MB-436 [9]; 10 nM): 92.9% | normalised viability (MDA-MB-453 [10]; 1 nM): 78.9% | normalised viability (MDA-MB-468 [11]; 10 nM): 103% | normalised viability (MFM-223; 10 nM): 78.9% | normalised viability (SK-BR-3 [12]; 10 nM): 65.8% | normalised viability (MDA-MB-453 [13]; 100 nM): 92% | normalised viability (BT-474 [14]; 0.1 nM): 87.8% | normalised viability (BT-549 [15]; 0.1 nM): 90.5% | normalised viability (CAL-51 [16]; 0.1 nM): 91.3% | normalised viability (CAL-85-1 [17]; 0.1 nM): 107% | normalised viability (DU-4475 [18]; 0.1 nM): 91.1% | normalised viability (HCC1143 [19]; 0.1 nM): 110% | normalised viability (HCC1599 [20]; 0.1 nM): 82.5% | normalised viability (MDA-MB-231 [21]; 0.1 nM): 94.4% | normalised viability (MDA-MB-436 [22]; 0.1 nM): 94.8% | normalised viability (MDA-MB-453 [23]; 0.1 nM): 82.5% | normalised viability (MDA-MB-468 [24]; 0.1 nM): 95.8% | normalised viability (SK-BR-3 [25]; 0.1 nM): 92.3%

Cc1ccc(-c2cc(C(F)(F)F)nn2-c2ccc(S(N)(=O)=O)cc2)cc1 [Celecoxib]
normalised viability (BT-474 [1]; 100 nM): 110% | normalised viability (BT-549 [2]; 100 nM): 108% | normalised viability (CAL-120; 100 nM): 91.1% | normalised viability (CAL-148; 10 nM): 97.2% | normalised viability (CAL-51 [3]; 10 nM): 100% | normalised viability (CAL-85-1 [4]; 10 nM): 76.9% | normalised viability (DU-4475 [5]; 10 nM): 96.9% | normalised viability (HCC1143 [6]; 100 nM): 95.9% | normalised viability (HCC1599 [7]; 100 nM): 90.2% | normalised viability (HCC1937; 100 nM): 94.9% | normalised viability (HDQ-P1; 10 nM): 109% | normalised viability (Hs578T; 100 nM): 83.1% | normalised viability (MDA-MB-231 [8]; 100 nM): 89% | normalised viability (MDA-MB-436 [9]; 100 nM): 92.3% | normalised viability (MDA-MB-453 [10]; 10 nM): 103% | normalised viability (MDA-MB-468 [11]; 100 nM): 111% | normalised viability (MFM-223; 100 nM): 88.4% | normalised viability (SK-BR-3 [12]; 100 nM): 83.3% | normalised viability (MDA-MB-453 [13]; 1000 nM): 103% | normalised viability (BT-474 [14]; 1 nM): 76.1% | normalised viability (BT-549 [15]; 1 nM): 90.7% | normalised viability (CAL-51 [16]; 1 nM): 91.3% | normalised viability (CAL-85-1 [17]; 1 nM): 86.8% | normalised viability (DU-4475 [18]; 1 nM): 89% | normalised viability (HCC1143 [19]; 1 nM): 90.7% | normalised viability (HCC1599 [20]; 1 nM): 79% | normalised viability (MDA-MB-231 [21]; 1 nM): 117% | normalised viability (MDA-MB-436 [22]; 1 nM): 104% | normalised viability (MDA-MB-453 [23]; 1 nM): 97.3% | normalised viability (MDA-MB-468 [24]; 1 nM): 102% | normalised viability (SK-BR-3 [25]; 1 nM): 75.2%

Nc1ncn([C@H]2C[C@H](O)[C@@H](CO)O2)c(=O)n1 [Decitabine]
normalised viability (BT-474 [1]; 100 nM): 87.1% and 95.7% | normalised viability (BT-549 [2]; 100 nM): 102% and 98.4% | normalised viability (CAL-120; 100 nM): 85.2% and 84.4% | normalised viability (CAL-148; 10 nM): 87.3% and 90% | normalised viability (CAL-51 [3]; 10 nM): 112% and 102% | normalised viability (CAL-85-1 [4]; 10 nM): 96% and 100% | normalised viability (DU-4475 [5]; 10 nM): 98.1% and 117% | normalised viability (HCC1143 [6]; 100 nM): 82.4% and 79.1% | normalised viability (HCC1599 [7]; 100 nM): 108% and 99.9% | normalised viability (HCC1937; 100 nM): 101% and 108% | normalised viability (HDQ-P1; 10 nM): 109% and 95.9% | normalised viability (Hs578T; 100 nM): 85.2% and 99.2% | normalised viability (MDA-MB-231 [8]; 100 nM): 86.7% and 95% | normalised viability (MDA-MB-436 [9]; 100 nM): 89.6% and 90.8% | normalised viability (MDA-MB-453 [10]; 10 nM): 90.9% and 113% | normalised viability (MDA-MB-468 [11]; 100 nM): 32.4% and 32.1% | normalised viability (MFM-223; 100 nM): 79% and 95.3% | normalised viability (MDA-MB-453 [13]; 1000 nM): 96% and 103% | normalised viability (BT-474 [14]; 1 nM): 98.4% and 79.8% | normalised viability (BT-549 [15]; 1 nM): 110% and 109% | normalised viability (CAL-51 [16]; 1 nM): 113% and 104% | normalised viability (CAL-85-1 [17]; 1 nM): 81.4% and 95.5% | normalised viability (DU-4475 [18]; 1 nM): 102% and 101% | normalised viability (HCC1143 [19]; 1 nM): 88.1% and 95.7% | normalised viability (HCC1599 [20]; 1 nM): 107% and 109% | normalised viability (MDA-MB-231 [21]; 1 nM): 111% and 91.6% | normalised viability (MDA-MB-436 [22]; 1 nM): 94.8% and 84.5% | normalised viability (MDA-MB-453 [23]; 1 nM): 93% and 107% | normalised viability (MDA-MB-468 [24]; 1 nM): 96.6% and 98.9% | normalised viability (SK-BR-3 [25]; 1 nM): 82% and 93.2%
